From patent US12023330B2, “Use of manzamines as antiproliferative agent” (priority 2020, dated 2024)

Tests used:
[1] = tested on: CaSki cells; assay: Cell cycle distribution by flow cytometry (PI); assay type: cell-based, human; settings: 4 μM
Procedure: (§1) Differential Activation of G1 Phase Arrest and Apoptosis by Manzamine A (1). To understand the mechanism of manzamine A (1)-mediated cell growth inhibition, we analyzed the cell cycle distribution by flow cytometry in C33A, HeLa, SiHa, and CaSki cell lines. […] FIGS. 3A and 3B show a representation of manzamine A (1) effect on cervical cancer cells treated with 4 μM concentration. […] The values represent standard error from the mean (mean±SE). DMSO serves as control. The significance level represents; *p<0.05; **p<0.001; ***[…]; and ns=non-significant. […] Particularly at 4 μM concentration, the percentage of G0/G1 cell population in SiHa and CaSki increased to 1.2 fold (p=0.001) and 1.4 fold (p=0.011) at 24 hours, and 1.2 fold (p=0.03) and 1.5 fold (p=0.006) at 48 hours as compared to respective DMSO control.
(§2) Cell-cycle and Apoptosis Analysis. Cervical cancer cells were seeded and treated with different concentrations of manzamine A (1) as above. Following trypsinization, one part of the cells was washed with PBS and fixed in chilled 70% ethanol on ice for 30 min. Cells were treated with RNAse A (1 mg/ml) at room temperature for 30 min and stained with propidium iodide (PI: 20 μg/ml). Cell-cycle distribution was analyzed by flow cytometry (Beckman Coulter Epics Elite, Beckman). A minimum of 10,000 events were counted per sample, and the data were analyzed using CXP software (Beckman Coulter) for the proportions of cells in G0/G1, S and G2/M phases of the cell cycle. The second part of the cells were washed twice with PBS and re-suspended in the buffer containing Alexa Fluor conjugated-Annexin-V and PI (Life Technologies, USA). The double staining of the cells was analyzed by flow cytometric analysis. A total of 10,000 cell events were collected to analyze the extent of early, late apoptosis, or necrosis from each sample with the percentages of bound annexin-V^+/PI^−, annexin V^+/PI^+, and annexin V^−/PI^+, respectively.

[2] = tested on: C33A cells; assay: Cell cycle distribution by flow cytometry (PI); assay type: cell-based, human; settings: 4 μM, 48 and 72 hours
Procedure: as §1, §2

[3] = tested on: HeLa cells; assay: Cell cycle distribution by flow cytometry (PI); assay type: cell-based, human; settings: 4 μM, 48 and 72 hours, vs DMSO control
Procedure: as §1, §2

[4] = tested on: SiHa cells; assay: Cell cycle distribution by flow cytometry (PI); assay type: cell-based, human; settings: 4 μM
Procedure: as §1, §2

[5] = tested on: C33A, HeLa, SiHa and CaSki cell lines; assay: Cell growth kinetics; assay type: cell-based, human
Procedure: (§3) To maintain the treatment uniformity across the cell lines, we selected optimal dose concentration of 1 to 4 μM, and treated C33A, HeLa, SiHa and CaSki cell lines.
Cell Growth Kinetics. Cervical cancer cells (1×10^6) or HKc (2×10^5) were plated in 100 mm tissue culture petri dish or 6-well plates. Following overnight incubation, cells were treated with 2 μM or 4 μM concentrations of manzamine A (1) derivatives for different time points (24, 48 and 72 hours). Dimethyl sulphoxide (DMSO) was used as control. The cell proliferation activity was determined by cell counting under the microscope with a hemocytometer using trypan blue staining.

[6] = tested on: normal human keratinocytes (HKc); assay: Cell growth kinetics of normal keratinocytes; assay type: cell-based; settings: 4 μM stated for compound 4; 48 h and 72 h; vs DMSO control
Procedure: Based on MoIN, the additional manzamine-related compounds such as manzamine D (2), manzamine F (3), 8-hydroxymanzamine A (4), and ircinal A (5) were tested for their biological activities targeting cervical cancer cell lines (SiHa and CaSki).
Generation of Normal Human Keratinocytes (HKc). The generation and processing of normal HKc from de-identified foreskin tissue samples has previously been described in our studies, see Pirisi, L.; Yasumoto, S.; Feller, M.; Doniger, J.; DiPaolo, J. A. J. Virol. 1987, 61, 1061-1066, and was implemented with the following modifications: dispase was used in lieu of collagenase, and a trypsinization step was added to release the epidermal cells. Briefly, to generate normal HKc primary cultures, the foreskin tissue, free of subcutaneous tissue, was placed in 10% dispase in phosphate buffer saline (PBS) and incubated overnight at 37° C. The next day, the epidermis was separated from the dermis, and processed mechanically by shredding the tissue into smaller pieces that were then treated with Trypsin/EDTA for 10 minutes at 37° C. Following the addition of fetal bovine serum (10%) to stop the trypsin action, cells were collected by centrifugation and plated in keratinocytes serum free medium (KSFM).
Cell Growth Kinetics. […] The cell proliferation activity was determined by cell counting under the microscope with a hemocytometer using trypan blue staining.

[7] = tested on: cervical cancer cell lines; assay: Colony formation assay; assay type: cell-based, human; settings: 2 and 4 μM; one week
Procedure: as §3
Colony Formation Assay. Cancer cell lines were seeded at a density of 1×10^3 cells/ml in 6-well plates. Following overnight incubation, the cells were treated with manzamine A (1) (2 μM and 4 μM) and incubated in a tissue culture incubator at 37° C. with 5% CO2. After one week, the developed cell colonies were fixed with 4% paraformaldehyde, stained with 0.5% crystal violet, and were photographed.

[8] = tested on: CaSki cells; assay: Apoptosis analysis (annexin V and PI staining); assay type: cell-based, human; settings: 4 μM, 48 hours
Procedure: (§4) Since programmed cell death (apoptosis) is a key mechanism by which anti-cancer drugs kill cancer cells, we determined the apoptotic effect of manzamine A on cervical cancer cells using annexin V and PI staining. […] Given the sensitivity of C33A and HeLa cell lines to manzamine A, an increase in apoptosis was expected. […] CaSki cells were the least sensitive and corresponds to the IC50 values as in FIG. 2.
as §2

[9] = tested on: C33A cells; assay: Apoptosis analysis (annexin V and PI staining); assay type: cell-based, human
Procedure: as §4, §2

[10] = tested on: HeLa cells; assay: Apoptosis analysis (annexin V and PI staining); assay type: cell-based, human
Procedure: as §4, §2

[11] = tested on: SiHa cells; assay: Apoptosis analysis (annexin V and PI staining); assay type: cell-based, human; settings: 4 μM, 48 hours
Procedure: as §4, §2

SMILES: O[C@]12C=C(c3nccc4c3[nH]c3ccccc34)[C@@H]3CCN(CCCC/C=C\CC1)C[C@@]31C[C@@H]3/C=C\CCCCN3[C@H]12 [manzamine A]
- increase of percentage of G0/G1 cell population vs DMSO control ([1]; 24 hours): 1.4 fold
- increase of percentage of G0/G1 cell population vs DMSO control ([1]; 48 hours): 1.5 fold
- G2/M cell population [2]: significant decrease
- cell population in G0/G1 ([2]; vs DMSO control): significant decrease
- cell population in G0/G1 [3]: significant decrease
- increase of percentage of G0/G1 cell population vs DMSO control ([4]; 24 hours): 1.2 fold
- increase of percentage of G0/G1 cell population vs DMSO control ([4]; 48 hours): 1.2 fold
- cervical cancer cell proliferation ([5]; 1 to 4 μM, time- and dose-dependent, vs DMSO control): significantly inhibited
- anti-proliferative, non-cytotoxic concentrations ([5]; cervical cancer cells): up to 4 μM
- cell growth kinetics of normal HKc [6]: no adverse effect
- colony formation (long-term cell growth) [7]: inhibited the cell growth
- percentage of induced apoptotic cells (apoptosis+ necrosis) [8]: 23.2%
- percentage of induced apoptotic cells (apoptosis+ necrosis) ([9]; 4 μM, 48 hours): 36.5%
- apoptosis and necrosis ([9]; 24 hours): induces apoptosis
- percentage of induced apoptotic cells (apoptosis+ necrosis) ([10]; 4 μM, 48 hours): 75.9%
- apoptosis ([10]; forty-eight hours treatment): significant increase
- percentage of induced apoptotic cells (apoptosis+ necrosis) [11]: 33.6%
